Values joined by “and” are separate entries in the source; they are usually repeats but may differ in a detail not shown here. Identical values can stand only once. Like-named read-outs stand apart in the source and are kept apart here.
Columns and labels:
[1] = Excerpt: All serious and non-serious adverse events were reported to study personnel as per local regulatory requirements. Reportable adverse events included serious adverse events, adverse events resulting in study medication discontinuation, and adverse events assessed as possibly related to study medication.
Because many patients who would ordinarily have been hospitalized were prevented from admission due to hospital over-capacity during peak waves, the composite endpoint addresses both hospitalization and a proxy for hospitalization, retention in a COVID-19 emergency hospital setting. This region of Brazil implemented hospital-like services in the emergency settings with 50-80 bed units providing services including multiday stays, oxygenation, and mechanical ventilation. […] Key secondary outcomes include viral clearance, time to clinical improvement, number of days with respiratory symptoms, time to hospitalization for any cause or due to COVID-19 progression, all-cause mortality and time to death from any causes, WHO clinical worsening scale score, days in hospital and on ventilator and adverse events, adverse reactions to the study medications, and the proportion of participants who are non-adherent with the study drugs.
The TOGETHER trial is the largest placebo-controlled trial of COVID-19 interventions in the world. It currently evaluates drugs for pre-hospitalization.

[2] = test system: SARS-CoV-2 infection; experiment: Retrospective cohort (BJC Healthcare): antidepressant exposure and ED or hospital encounter within 30 days; assay type: in vivo, human; details: share of exposed outpatients with an encounter after a positive SARS-CoV-2 test
[3] = test system: COVID-19 (SARS-CoV-2 infection)
[4] = test system: COVID-19
[5] = test system: COVID-19; details: cited from earlier work
[6] = test system: LPS- or fecal slurry-induced inflammatory response; details: cited from earlier work; for Survival: wildtype mice, LPS, IRE1-mediated inflammation, fecal-induced peritonitis
[7] = test system: LPS-induced cytokine production; details: human peripheral blood; cited from earlier work
[8] = test system: experimental autoimmune encephalomyelitis (EAE); details: cited from earlier work
[9] = test system: α1-, α2-, β-adrenergic, muscarinic, dopamine D2, histamine H1, GABA-benzodiazepine, opiate, 5-HT1, or 5-HT2 receptors; details: cited from earlier work
[10] = test system: COVID-19 (SARS-CoV-2 infection); details: cited from earlier work
[11] = test system: HEK293T cell lines expressing ACE2 and TMPRSS2; details: FIG. 27; cited from earlier work
[12] = depending on formulation; cited from earlier work
[13] = Together, N = 741, MedDRA body system
[14] = Intent to Treat Analysis, all randomized
[15] = per protocol, fluvoxamine group
[16] = Bayesian, moderately optimistic prior

## COCCCC/C(=N\OCCN)c1ccc(C(F)(F)F)cc1.O=C(O)/C=C\C(=O)O [fluvoxamine, 5-methoxy-4′-(trifluoromethyl)valerophenone-(E)-O-(2-aminoethyl)oxime maleate (1:1)]
[1]; TOGETHER, fluvoxamine group
  Treatment emergent adverse event Grade 1, %: (3%)
  Treatment emergent adverse event Grade 1, n/N: 20/741
  Treatment emergent adverse event Grade 2, %: (10%)
  Treatment emergent adverse event Grade 2, n/N: 72/741
  Treatment emergent adverse event Grade 3, %: (5%)
  Treatment emergent adverse event Grade 3, n/N: 38/741
  Treatment emergent adverse event Grade 4, %: (3%)
  Treatment emergent adverse event Grade 4, n/N: 21/741
  Treatment emergent adverse event Grade 5, %: (2%)
  Treatment emergent adverse event Grade 5, n/N: 18/741
[1]; [13]
  Cardiac disorders, % of AEs: (0.6%)
  Cardiac disorders, number of AEs: 1
  Ear and labyrinth disorders, % of AEs: (0.6%)
  Ear and labyrinth disorders, number of AEs: 1
  Gastrointestinal disorders, % of AEs: (9.2%)
  Gastrointestinal disorders, number of AEs: 16
  Hepatobiliary disorders, % of AEs: (0%)
  Hepatobiliary disorders, number of AEs: 0
  Infections and infestations, % of AEs: (49%)
  Infections and infestations, number of AEs: 85
  Metabolism and nutrition disorders, % of AEs: (2.3%)
  Metabolism and nutrition disorders, number of AEs: 4
  Musculoskeletal and connective tissue disorders, % of AEs: (2.3%)
  Musculoskeletal and connective tissue disorders, number of AEs: 4
  Nervous system disorders, % of AEs: (1.7%)
  Nervous system disorders, number of AEs: 3
  Psychiatric disorders, % of AEs: (2.9%)
  Psychiatric disorders, number of AEs: 5
  Renal and urinary disorders, % of AEs: (0.6%)
  Renal and urinary disorders, number of AEs: 1
  Reproductive system and breast disorders, % of AEs: (0.6%)
  Reproductive system and breast disorders, number of AEs: 1
  Respiratory, thoracic and mediastinal disorders, % of AEs: (6.3%)
  Respiratory, thoracic and mediastinal disorders, number of AEs: 11
  Skin and subcutaneous tissue disorders, % of AEs: (0%)
  Skin and subcutaneous tissue disorders, number of AEs: 0
  Vascular disorders, % of AEs: (1.1%)
  Vascular disorders, number of AEs: 2
[1]; Together, N = 741 participants
  N individual AEs: 174
[1]; of 741
  Participants who stopped owing to issues of tolerability, No.: 84
[2]
  ED or hospital encounter within 30 days, %: 21.1%
[3]
  Hospitalization or extended emergency room visit due to COVID-19, HR: 0.77
  Patients with any interaction with a COVID-19 emergency setting, No.: 180
  Period of hospitalization, estimated treatment effect: 1.23
  Progression to severe COVID (FDA categorization), % of patients: 10.1%
  Proportion of primary outcome events, %: 3.6%
  Time on mechanical ventilator, estimated treatment effect: 1.03
[3]; 100 mg
  Primary outcome events (retention in COVID-19 emergency setting >6 h or transfer to tertiary hospital), No. of patients: 79
[3]; 24 h
  Proportion of primary outcome events, %: 10.5%
[3]; ITT population
  Probability of superiority (event rate lower than placebo): 99.8%
[3]; ITT, of 741, 28 days
  Primary outcome events, % of patients: 11%
[3]; [14]
  Primary outcome events, n/N: (79/741)
  Proportion of primary outcome events (retention in COVID-19 emergency setting >6 hours or transfer to tertiary hospital), %: 10.7%
[3]; Intention-to-treat analysis, N 741
  Primary outcome events (retention in a COVID-19 emergency setting or transfer to tertiary hospital due to COVID-19), %: (11%)
[3]; Modified Intent to Treat Analysis, received ≥24 hours of study medicine
  Primary outcome events, n/N: (78/740)
[3]; Modified intention-to-treat analysis, N 740
  Primary outcome events (retention in a COVID-19 emergency setting or transfer to tertiary hospital due to COVID-19), %: (11%)
[3]; Per Protocol, received 80% of study medicine prior to any deterioration
  Primary outcome events, n/N: (20/548)
[3]; TOGETHER, fluvoxamine group
  All-cause hospitalization, n/N: 76/741
  Death, intention to treat, %: (2%)
  Death, intention to treat, n/N: 17/741
  Hospitalized for COVID, n/N: 75/741
[3]; mITT population
  Probability that event rate was lower than placebo: 99.7%
[3]; median, fluvoxamine group
  Time to death: 17 days
[3]; [15]
  Death, per protocol, %: (<1%)
  Death, per protocol, n/N: 1/548
[3]; per-protocol population
  Deaths, No.: one
[3]; per-protocol, took at least 80% of pills
  Reduction in risk of death (mortality): 91%
[3]; primary intention-to-treat analysis
  Deaths, No.: 17
[3]; primary outcome
  Number needed to treat: 20
[3]; subgroup Age <=50
  Hospitalization or extended emergency room visit due to COVID-19, n_Fluvoxamine: 23
[3]; subgroup Age <=50, vs placebo
  Hospitalization or extended emergency room visit due to COVID-19, HR: 0.57
[3]; subgroup Age >50, vs placebo
  Hospitalization or extended emergency room visit due to COVID-19, HR: 0.67
[3]; subgroup BMI (Kg/m^2) >30
  Hospitalization or extended emergency room visit due to COVID-19, n_Fluvoxamine: 44
[3]; subgroup BMI (Kg/m^2) >30, vs placebo
  Hospitalization or extended emergency room visit due to COVID-19, HR: 0.64
[3]; subgroup Cardiovascular disease N, vs placebo
  Hospitalization or extended emergency room visit due to COVID-19, HR: 0.67
[3]; subgroup Cardiovascular disease Y
  Hospitalization or extended emergency room visit due to COVID-19, n_Fluvoxamine: 0
[3]; subgroup Chronic kidney disease N
  Hospitalization or extended emergency room visit due to COVID-19, n_Fluvoxamine: 78
[3]; subgroup Chronic kidney disease Y
  Hospitalization or extended emergency room visit due to COVID-19, n_Fluvoxamine: 1
[3]; subgroup Sex Female
  Hospitalization or extended emergency room visit due to COVID-19, n_Fluvoxamine: 28
[3]; subgroup Sex Male
  Hospitalization or extended emergency room visit due to COVID-19, n_Fluvoxamine: 51
[3]; subgroup Sex Male, vs placebo
  Hospitalization or extended emergency room visit due to COVID-19, HR: 0.80
[3]; subgroup Smoking status Current, vs placebo
  Hospitalization or extended emergency room visit due to COVID-19, HR: 0.80
[3]; subgroup Smoking status Former
  Hospitalization or extended emergency room visit due to COVID-19, n_Fluvoxamine: 10
[3]; subgroup Smoking status Former, vs placebo
  Hospitalization or extended emergency room visit due to COVID-19, HR: 0.46
[3]; subgroup Time from onset of symptoms 0-3 days
  Hospitalization or extended emergency room visit due to COVID-19, n_Fluvoxamine: 30
[3]; unadjusted hazard ratio, fluvoxamine vs placebo
  Time to death, estimated treatment effect: 0.80
[3]; unadjusted odds ratio, fluvoxamine vs placebo
  Death, intention to treat, estimated treatment effect: 0.69
[4]; [16]
  Probability RR <1: 97.2%
  Probability RR ≤0.9: 89.9%
[4]; Bayesian, weakly neutral prior
  Probability RR <1: 94.1%
  Probability RR ≤0.9: 81.6%
[4]; Frequentist analysis
  Probability RR <1: 98.3%
  Probability RR ≤0.9: 91.1%
[4]; frequentist meta-analysis
  Probability of at least a moderate effect: 91.1%
  Probability that fluvoxamine prevents hospitalization: 98.3%
[5]; 95% CI 0.36-0.94
  HR for death vs matched controls: 0.58
[5]; ICU patients, 100 mg three times daily
  Patients who died, %: 58.8%
[5]; in vivo
  Reduced risk of death vs matched controls: 42%
[5]; of 51 ICU patients, 100 mg three times daily
  Patients who died, No.: 30
[6]; S1R KO animals
  Effect on endotoxic shock-induced death: no significant effect
[6]; wildtype mice exposed to LPS or fecal slurry
  Cytokine levels: reduced cytokine levels
[6]
  Survival: increased survival
[6]; listed as FLV
  Survival: enhanced survival
[7]
  LPS-induced cytokine production by human cells: reduce LPS-induced cytokine production
[8]; rats, also when treatment began 12 days post-induction
  Severity of EAE: reduces the severity
[8]; vs untreated EAE rats
  IFN-γ serum levels: decrease
  IL-4 serum levels: increase
[9]
  Affinity for α1-, α2-, β-adrenergic, muscarinic, dopamine D2, histamine H1, GABA-benzodiazepine, opiate, 5-HT1, or 5-HT2 receptors: negligible affinity
[10]; 50 mg twice daily, 14 days
  Incidence of hospitalization: 0%
[10]; 14 days
  Patients hospitalized, number of 65: no patients and 0 of 65
[10]; 14 days, listed as FLV
  Patients hospitalized, number of 65: 0/65
[10]; Day 14
  Persistent residual / ongoing symptoms at 14 days: 0%
  Persons with persistent residual / ongoing symptoms at 14 days, number of 65: 0/65 and zero
[10]; Day 14, listed as FLV
  Persons with persistent residual / ongoing symptoms at 14 days, number of 65: 0/65
[11]
  HEK293T-ACE2-TMPRSS2 cell IC50: 4.579 µg/mL
[12]
  half-life: 9 to 28 h
